Data published in patent publication US10457710B2, “Antimicrobial peptides, their variants and uses” (priority 2015, dated 2019).
Where a SMILES comes first, the peptide text is derived from it. [ ]: non-standard residue; d: D form.

Tests used:
Format in all cases: cell-based
C. quillermondiae = assay: MIC, clinical yeast strains; settings: clinical yeast strain 1; D-form peptide; concentrations tested 0.125 to 128 μg/ml
How it was run: (§1)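 Clinical isolates were exposed to peptide concentrations from 0.125 up to 128 μg/ml at a starting density of 5.0×10^5 cfu/ml. Antifungal testing took place in potato dextrose broth at 37° C for 20 to 24 hours, and the end point was the absence of visible growth.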

[1] = tested on: clinical strains of Serratia marcescens; assay: MIC, microdilution, clinical strains; settings: 0.02% BSA, 0.2% acetic acid
How it was run: (§2)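 MIC = lowest peptide concentration without visual growth after 20–24 h at 37° C. Range 0.125–128 μg/ml, inoculum 5.0×10^5 cfu/ml, microdilution format. Antifungal tests used potato dextrose broth; bacterial tests used MH broth.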

[2] = tested on: clinical strains of Proteus mirabilis; assay: MIC, microdilution, clinical strains; settings: 0.02% BSA, 0.2% acetic acid
How it was run: as §2

[3] = tested on: clinical strains of S. pneumoniae; assay: MIC, microdilution, clinical strains; settings: 0.02% BSA, 0.2% acetic acid
How it was run: as §2

[4] = tested on: clinical strains of S. aureus; assay: MIC, microdilution, clinical strains; settings: 0.02% BSA, 0.2% acetic acid
How it was run: as §2

[5] = tested on: clinical strains of E. cloacae; assay: MIC, microdilution, clinical strains; settings: 0.02% BSA, 0.2% acetic acid
How it was run: as §2

[6] = tested on: clinical strains of P. aeruginosa; assay: MIC, microdilution, clinical strains; settings: 0.02% BSA, 0.2% acetic acid
How it was run: as §2

[7] = tested on: clinical strains of E. coli; assay: MIC, microdilution, clinical strains; settings: microdilution, Muller Hinton broth-cation adjusted, 0.02% BSA, 0.2% acetic acid
How it was run: as §2

[8] = tested on: clinical strains of K. pneumoniae; assay: MIC, microdilution, clinical strains; settings: 0.02% BSA, 0.2% acetic acid
How it was run: as §2

Candida albicans = assay: MIC, clinical yeast strains; settings: D-form peptide, concentrations tested 0.125 to 128 μg/ml
How it was run: as §1

C. parapsilosis = assay: MIC, clinical yeast strains; settings: D-form peptide, concentrations tested 0.125 to 128 μg/ml
How it was run: as §1

C. glabrata = assay: MIC, clinical yeast strains; settings: D-form peptide, concentrations tested 0.125 to 128 μg/ml
How it was run: as §1

[9] = tested on: clinical strains of Acinetobacter baumannii; assay: MIC, microdilution, clinical strains; set-up: unit: μg/ml; settings: 0.02% BSA, 0.2% acetic acid
How it was run: as §2

[10] = tested on: clinical strains of A. johnsonii; assay: MIC, microdilution, clinical strains; set-up: unit: μg/ml; settings: Acinetobacter johnsonii strain 1, Muller Hinton broth-cation adjusted, 0.02% BSA, 0.2% acetic acid
How it was run: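 For A. johnsonii, Mueller Hinton broth; for the clinical yeasts, Potato dextrose broth. In both, 5.0×10^5 cfu/ml was exposed to peptide over 0.125–128 μg/ml for 20–24 h at 37 °C, and MIC was read as the lowest concentration showing no visual growth.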

For `CC[C@@H](C)[C@@H](NC(=O)[C@@H](CCSC)NC(=O)[C@@H](C)NC(=O)[C@@H](CCCNC(=N)N)NC(=O)[C@@H](Cc1c[nH]c2ccccc12)NC(=O)[C@@H](CCCCN)NC(=O)[C@H](N)CCCNC(=N)N)C(=O)N[C@H](CCCNC(=N)N)C(=O)N[C@H](CC(C)C)C(=O)N[C@H](Cc1c[nH]cn1)C(=O)N[C@H](C)C(=O)N[C@H](CCCCN)C(=O)N[C@H](CCCNC(=N)N)C(=O)N[C@H](CC(C)C)C(=O)N[C@H](CCCNC(=N)N)C(=O)N[C@H](CCCCN)C(=O)O` [Chain104D] (H-[dR][dK][dW][dR][dA][dM][dI][dR][dL][dH][dA][dK][dR][dL][dR][dK]-OH), the “Minimum inhibitory concentration, C. quillermondiae strain 1” value (C. quillermondiae) was 4, the Minimum inhibitory concentration ([1]; Serratia marcescens strain 1, Muller Hinton broth-cation adjusted) was >128 and the Minimum inhibitory concentration ([1]; Serratia marcescens strain 2, Muller Hinton broth-cation adjusted) was >128. For the same compound, the Minimum inhibitory concentration ([1]; Serratia marcescens strain 3, Muller Hinton broth-cation adjusted) was >128, the Minimum inhibitory concentration ([1]; Serratia marcescens strain 4, Muller Hinton broth-cation adjusted) was >128 and the Minimum inhibitory concentration ([1]; Serratia marcescens strain 5, Muller Hinton broth-cation adjusted) was 128. For the same compound, the Minimum inhibitory concentration ([2]; Proteus mirabilis strain 1, Muller Hinton broth-cation adjusted) was >128, the Minimum inhibitory concentration ([2]; Proteus mirabilis strain 2, Muller Hinton broth-cation adjusted) was 32 and the Minimum inhibitory concentration ([2]; Proteus mirabilis strain 3, Muller Hinton broth-cation adjusted) was 128. The Minimum inhibitory concentration ([2]; Proteus mirabilis strain 4, Muller Hinton broth-cation adjusted) was >128, the Minimum inhibitory concentration ([2]; Proteus mirabilis strain 5, Muller Hinton broth-cation adjusted) was >128 and the Minimum inhibitory concentration ([3]; Streptococcus pneumoniae strain 1, Muller Hinton broth-cation adjusted) was 4. For the same compound, the Minimum inhibitory concentration ([3]; Streptococcus pneumoniae strain 2, Muller Hinton broth-cation adjusted) was 2, the Minimum inhibitory concentration ([3]; Streptococcus pneumoniae strain 3, Muller Hinton broth-cation adjusted) was 1 and the Minimum inhibitory concentration ([3]; Streptococcus pneumoniae strain 4, Muller Hinton broth-cation adjusted) was 4. For the same compound, the Minimum inhibitory concentration ([3]; Streptococcus pneumoniae strain 5, Muller Hinton broth-cation adjusted) was 1, the Minimum inhibitory concentration ([4]; Staphylococcus aureus strain 1, Muller Hinton broth-cation adjusted) was 4 and the Minimum inhibitory concentration ([4]; Staphylococcus aureus strain 2, Muller Hinton broth-cation adjusted) was 2. For the same compound, the Minimum inhibitory concentration ([4]; Staphylococcus aureus strain 3, Muller Hinton broth-cation adjusted) was 4, the Minimum inhibitory concentration ([4]; Staphylococcus aureus strain 4, Muller Hinton broth-cation adjusted) was 2 and the Minimum inhibitory concentration ([4]; Staphylococcus aureus strain 5, Muller Hinton broth-cation adjusted) was 4. The Minimum inhibitory concentration ([5]; Enterobacter cloacae strain 1, Muller Hinton broth-cation adjusted) was 4, the Minimum inhibitory concentration ([5]; Enterobacter cloacae strain 2, Muller Hinton broth-cation adjusted) was 4 and the Minimum inhibitory concentration ([5]; Enterobacter cloacae strain 3, Muller Hinton broth-cation adjusted) was 8. It also gave a Minimum inhibitory concentration ([5]; Enterobacter cloacae strain 4, Muller Hinton broth-cation adjusted) of 4, a Minimum inhibitory concentration ([5]; Enterobacter cloacae strain 5, Muller Hinton broth-cation adjusted) of 2 and a Minimum inhibitory concentration ([6]; Pseudomonas aeruginosa strain 1, Muller Hinton broth-cation adjusted) of 4. The Minimum inhibitory concentration ([6]; Pseudomonas aeruginosa strain 2, Muller Hinton broth-cation adjusted) was 2, the Minimum inhibitory concentration ([6]; Pseudomonas aeruginosa strain 3, Muller Hinton broth-cation adjusted) was 4 and the Minimum inhibitory concentration ([6]; Pseudomonas aeruginosa strain 4, Muller Hinton broth-cation adjusted) was 2. It also gave a Minimum inhibitory concentration ([6]; Pseudomonas aeruginosa strain 5, Muller Hinton broth-cation adjusted) of 1, a Minimum inhibitory concentration ([7]; Escherichia coli strain 1) of 4 and a Minimum inhibitory concentration ([7]; Escherichia coli strain 2) of 4. The Minimum inhibitory concentration ([7]; Escherichia coli strain 3) was 4, the Minimum inhibitory concentration ([7]; Escherichia coli strain 4) was 4 and the Minimum inhibitory concentration ([7]; Escherichia coli strain 5) was 4. The Minimum inhibitory concentration ([8]; Klebsiella pneumoniae strain 1, Muller Hinton broth-cation adjusted) was 8, the Minimum inhibitory concentration ([8]; Klebsiella pneumoniae strain 2, Muller Hinton broth-cation adjusted) was 4 and the Minimum inhibitory concentration ([8]; Klebsiella pneumoniae strain 3, Muller Hinton broth-cation adjusted) was 8. The Minimum inhibitory concentration ([8]; Klebsiella pneumoniae strain 4, Muller Hinton broth-cation adjusted) was 16, the Minimum inhibitory concentration ([8]; Klebsiella pneumoniae strain 5, Muller Hinton broth-cation adjusted) was 4 and the “Minimum inhibitory concentration, Candida albicans strain 1” value (Candida albicans; clinical yeast strain 1) was 8. The “Minimum inhibitory concentration, Candida albicans strain 2” value (Candida albicans; clinical yeast strain 2) was 8, the “Minimum inhibitory concentration, Candida albicans strain 3” value (Candida albicans; clinical yeast strain 3) was 8 and the “Minimum inhibitory concentration, Candida albicans strain 4” value (Candida albicans; clinical yeast strain 4) was 8. The “Minimum inhibitory concentration, Candida albicans strain 5” value (Candida albicans; clinical yeast strain 5) was 8, the “Minimum inhibitory concentration, C. parapsilosis strain 1” value (C. parapsilosis; clinical yeast strain 1) was 4 and the “Minimum inhibitory concentration, C. parapsilosis strain 2” value (C. parapsilosis; clinical yeast strain 2) was 4. For the same compound, the “Minimum inhibitory concentration, C. parapsilosis strain 3” value (C. parapsilosis; clinical yeast strain 3) was 4, the “Minimum inhibitory concentration, C. parapsilosis strain 4” value (C. parapsilosis; clinical yeast strain 4) was 2 and the “Minimum inhibitory concentration, C. glabrata strain 1” value (C. glabrata; clinical yeast strain 1) was 8. The “Minimum inhibitory concentration, C. glabrata strain 2” value (C. glabrata; clinical yeast strain 2) was 8, the “Minimum inhibitory concentration, C. glabrata strain 3” value (C. glabrata; clinical yeast strain 3) was 8 and the “Minimum inhibitory concentration, C. glabrata strain 4” value (C. glabrata; clinical yeast strain 4) was 16. The Minimum inhibitory concentration ([9]; Acinetobacter baumannii strain 1, Muller Hinton broth-cation adjusted) was 16, the Minimum inhibitory concentration ([9]; Acinetobacter baumannii strain 2, Muller Hinton broth-cation adjusted) was 8 and the Minimum inhibitory concentration ([9]; Acinetobacter baumannii strain 3, Muller Hinton broth-cation adjusted) was 8. For the same compound, the Minimum inhibitory concentration ([9]; Acinetobacter baumannii strain 4, Muller Hinton broth-cation adjusted) was 4, the Minimum inhibitory concentration ([9]; Acinetobacter baumannii strain 5, Muller Hinton broth-cation adjusted) was 8 and the Minimum inhibitory concentration [10] was 8.
